Entries after “also recorded” stand apart in the source; their conditions may differ.
Tested on: patients with AdvSM and other myeloid malignancies
Experiment: 3 + 3 dose escalation: MTD, DLT and RP2D
Assay type: in vivo
Procedure: This phase 1, open-label study comprised a dose-escalation phase (part 1) and a dose-expansion phase (part 2; Fig. 1). During dose escalation, patients received oral avapritinib at starting doses ranging from 30 to 400 mg QD in continuous 28-d treatment cycles. Dose escalation followed a 3 + 3 design (described below) until the MTD or RP2D was determined. During part 1, intra-patient dose escalation to assess dose levels not exceeding the MTD was allowed. Dose expansion was initially conducted at a starting dose of 300 mg QD; a second expansion cohort at 200 mg QD was subsequently introduced via protocol amendment. Dosing continued until patients experienced unacceptable toxicity, disease progression, death or withdrew consent.
The 3 + 3 dose-escalation design used cohorts of three to six patients. The first cohort received avapritinib at a starting dose of 30 mg daily. […] Three patients were enrolled initially in each cohort with an additional accrual of three patients if the cohort required expansion due to DLT. Once the escalation cohort was full, up to three additional patients (diagnosis of AdvSM only) could be enrolled into an enrichment cohort at a lower dose. Data from these patients were intended for further exploration of PK, pharmacodynamics and safety in patients with AdvSM.
The safety population included all enrolled patients and was used to report AEs and PROs (in those who completed the questionnaire). The dose-determining population included all patients in a cohort in part 1 who received ≥21 prescribed avapritinib doses in C1 and completed follow-up through C1, or experienced DLT. The determination of the MTD and RP2D were based on the dose-determining population. […] The AdvSM safety population was also used to report AEs and OS. […] The response-evaluable population was used to report adjudicated response rates and PFS. The PK population comprised all patients with sufficient plasma concentration–time data to reliably estimate the PK parameters of avapritinib.

SMILES: Cn1cc(-c2cc3c(N4CCN(c5ncc([C@@](C)(N)c6ccc(F)cc6)cn5)CC4)ncnn3c2)cn1 [avapritinib]
- Maximum tolerated dose (MTD) (doses of 30–400 mg once daily): No maximum tolerated dose (MTD) was determined; also recorded: not reached
- Recommended phase 2 dose (RP2D) (human, in vivo, 28 d): 200 mg
- Recommended phase 2 dose (RP2D) initially selected for part 2 (human, in vivo, 28 d): 300 mg QD
- Patients with dose-limiting toxicity (DLT) (in vivo): one

From PMC8674134, “Safety and efficacy of avapritinib in advanced systemic mastocytosis: the phase 1 EXPLORER trial” (Nature Medicine, 2021)
